Key:
[1] = system: circulating CD3+CD4+ T cells; assay: Phase 2 TAO trial: INFγ and IL-17A in circulating T cells (flow cytometry); type: in vivo, human; details: TAO patients, 20 mg/Kg, 24-week treatment
Experimental: Studies of circulating CD34^+ fibrocytes and T cells PBMCs from patients with active, moderate to severe TAO enrolled in a phase 2 trial for teprotumumab were cryopreserved immediately after collection. Venous blood sampling occurred at baseline and at week 24, following 8 infusions at 3 weekly intervals. The post-treatment sample was obtained 3 weeks after the final infusion of active drug or placebo. Samples were thawed and incubated with 10% knockout serum replacement medium for 1h and stained. Rinsed samples were subjected to FACS analysis with a Calibur flow cytometer (BD). Viable cells were gated on the basis of forward light scatter. All samples were analyzed using quadrant settings based on negative staining with isotype control antibodies. Mean fluorescent intensity (MFI) was calculated as the ratio of mean sample to isotype control fluorescence. Data were analyzed with FCS Express software (De Novo Software, Ontario, CA).

[2] = system: GD-OF; assay: IL-23p19 and IL-12p35 mRNA expression, real-time PCR; type: cell-based, human
Experimental: FIGS. 10A-10F are graphs showing the divergent effect of teprotumumab on bTSH induced IL-23p19 and IL-12p35 expression on fibrocytes and GD-OF. Rinsed fibrocyte and GD-OF monolayers were incubated with or without 50 μg/ml teprotumumab (FIGS. 10A and 10B) or 1 μM linsitinib (FIGS. 10C and 10D) and human Isotype IgG for 7-9 d, and bTSH (5 mIU/mL) was added for 6 h. Harvested RNA was reverse transcribed and isolated cDNA was subjected to quantitative real-time PCR for IL-23p19 and IL-12p35 mRNA levels. Values were normalized to their respective GAPDH levels and are expressed as the mean±SD of three independent determinations. Experiments were repeated three times. FIGS. 10E and 10F are graphs showing the levels of IL-23 protein when rinsed fibrocyte and GD-OF monolayers were incubated with or without 50 μg/ml teprotumumab. **, p<0.01; ***. P<0.001.
FIGS. 15A-15C are dose-response curves of teprotumumab effects on IL-6 expression/induction by bTSH (FIG. 15A); HAS2 expression/induction by bTSH (FIG. 15B); IL-12p35 expression/induction by bTSH (FIG. 15C). Following indicated treatments, cellular RNA was harvest from rinsed GD-OF cell layers, reversed transcribed and subjected to real-time PCR. Values were normalized to their respective GAPDH levels.
Graves' disease-orbital fibroblast (GD-OF) preparation and cultivtion GD-OF were isolated from orbital adipose/connective tissues removed during surgical orbital decompression surgery, as described ((Smith, T. J., et al., (2002) The Journal of clinical endocrinology and metabolism 87, 385-392). While the fraction of CD34^+ OF comprising GD-OF strains vary somewhat, the ratios of CD34^+/CD34^− OF are usually 50:50 in the early passages utilized in these studies (passages 2-11). Pure CD34^+ OF and CD34^− OF subsets were generated by staining for 30 m at 4° C. with fluorescein isothiocyanate-conjugated […] CD34 or its isotype control followed by cytometric cell sorting using a FACSAria III (BD Biosciences) instrument. Cells were sorted under sterile conditions into either CD34^+ OF, and CD34 OF subsets which were then re-cultured and treated without or with bTSH (5 mU/mL) or the other test compounds, as indicated, for 6 hrs, as indicated.
Real-time PCR Confluent fibrocyte and GD-OF cultures were incubated with bTSH (5 mIU/mL), teprotumumab (50 μg/mL) or linsitinib (1 μM) for the time intervals indicated, washed with PBS and RNA was extracted with the Aurum Total RNA Mini Kit (cat. #732-6820, Bio-Rad, Hercules, CA). Cellular RNA (2 μg) was reverse transcribed using QuantiTect Reverse Transcription kit (cat. #205314, Qiagen (Germantown, MD) and real-time PCR was performed using an Applied Biosystems instrument with QuantiTect SYBR Green PCR kit (cat. no. 204143; Qiagen, Frederick, MD). Primer sequences were as follows.

[3] = system: fibrocytes and GD-OF; assay: BAFF expression and induction by bTSH; type: cell-based, human; details: teprotumumab 50 μg/ml or rhSlit2 50 ng/ml
Experimental: FIGS. 12A-12F are graphs showing the effect of bTSH, teprotumumab, and Slit2 on B-cell activating factor (BAFF) expression in fibrocytes and GD-OF. In FIGS. 12A and 12B, cultures were treated for the graded intervals indicated along the abscissas with bTSH (5 mIU/mL). Cellular RNA was harvested and subjected to reverse transcription by RT-PCR (FIG. 12A). Values were normalized to their respective GAPDH levels Medium was assayed for BAFF levels with an ELISA (FIG. 12B). Values were normalized to respective monolayer protein content. Data are expressed as mean f SD of triplicate determinations; *, p<0.05; **, p<0.01; ***, p<0.001. In FIGS. 12C-12F, bTSH, teprotumumab (50 μg/ml) or recombinant human Slit2 (rhSlit2) (50 ng/ml) were added to culture media for the times indicated and analyzed for BAFF mRNA levels as in FIG. 12A. In FIGS. 12F, parental GD-OF strains were sorted into pure CD34^+ and CD34^− subsets. Subsets were then cultured for 48 h, the final 6 h in the absence or presence of bTSH. Data were expressed as mean f SD of triplicate independent determinations from a single experiment representative of three conducted. *, p<0.05; **, p<0.01
IL-12, IL-23, IL-10, HA and BAFF ELISAs. Confluent cultures were treated with nothing or teprotumumab (50 μg/mL) for 5 d, without or with bTSH (5 mU/mL) for the intervals indicated or 72 h. […]

[4] = teprotumumab 50 μg/ml or linsitinib 1 μM, 7-9 d

For teprotumumab, the “reduction of IL-17A expression level in CD4+ T cells” value [1] was 47%, the “reduction of INFγ expression level in CD4+ T cells” value [1] was 41% and the “dose dependence of effects (FIG. 15: IL-6, HAS2, IL-12p35 expression/induction by bTSH)” value ([2]; dose-response curves, GD-OF) was “dose-dependent”. For the same substance, the “IL-12p35 expression, basal and induction by bTSH” value [2, 4] was “enhances”, the “IL-23p19 expression, basal and induction by bTSH” value [2, 4] was “inhibited” and the “bTSH induction of BAFF” value [3] was “attenuated”.

Source: patent publication US20250034264A1, “REGULATING T CELL IMMUNE RESPONSE THROUGH IGF-I RECEPTOR (IGF-1R)” (The Regents of the University of Michigan, priority 2021, published 2025)
